From patent US20090324752A1, “COSMETIC USE OF ACTIVE INGREDIENTS INCREASING THE PRODUCTION OF GROWTH FACTORS” (CHANEL PARFUMS BEAUTE, priority 2006, published 2009) come the findings set out here.

The subject of this experiment is Human dermal fibroblasts. As to the kind of experiment: Stimulation of fibroblast proliferation by PDGF and FGFb (CellTiter 96 Aqueous One, absorbance 490 nm). In kind it is cell-based. As to conditions: 24 h, compared to the control (untreated = 100.00). As for the experimental part: Human dermal fibroblasts from a single donor were obtained from Cascade. At the 7rd passage, cells were seeded in 96 well plates and cultured in Dulbecco's modified Eagle medium DMEM (Gibco BRL, Gaithersburg, USA) supplemented with 10% foetal bovine serum (FBS, PAA, Linz, Austria), […] L-glutamine (Gibco) and 1% penicillin/streptomycin (Gibco). All cell culture was performed at […] in 5% CO2 and 95% air. This fibroblast culture was incubated by two growth factors ([…] and FGFb) at various concentrations for 24 h. After 24 hours incubation, 200 μL dosed media from 96-well plate were removed. CellTiter 96 Aqueous One Solution Reagent was used as described by the manufacturer. The absorbance at 490 nm was recorded using a plate reader to evaluate cell proliferation. The controls were the non treated cells. The experiment was conducted in 8 times by concentration.

With “FGFb (157 aa): Basic Fibroblast Growth Factor (157 aa), growth factor added to fibroblast culture”, the “Stimulation (%) of fibroblast proliferation” value was 141.22% (1 ng/ml) and 149.20% (10 ng/ml).
For PDGF, the “Stimulation (%) of fibroblast proliferation” value by setting is: (1 ng/ml) 107.20%; (10 ng/ml) 154.37%; (30 ng/ml) 185.58%.
